Source: US8063225B2, “Tricyclic compound derivatives useful in the treatment of neoplastic diseases, inflammatory disorders and immunomodulatory disorders” (Chembridge Corporation, priority 2006, dated 2011)

How the values were obtained:
Type in all cases: cell-based
[1] = tested on: HEK293 (human normal embryonic kidney); test: Cell proliferation inhibition, MTT assay, HEK293; conditions: 72 h, HEK293 cells, 3-day proliferation, read-out: HEK IC50
Source text: (§1) IGF1R and other tyrosine kinase inhibitors can inhibit the proliferation of certain cancer cell lines indicating their possible therapeutic utility for treating the corresponding cancer types. Cancer cell lines of interest and control normal lines, including CHO, HEK293, BA/F3, COLO205, PC3, DU145, MCF7, Panc1, ACHN, Hep G2, H460, K562, TT, U87-MG, CAOV-3, SK-MEL5, Karpas 299 and human multiple myeloma cell lines H929, MM1s, MM1r, UTMC2, CPM2, KMS11, My5, KMS12PE, My7, JJN3, KMS18, U266, SKMM2, RPMI-8226 are plated in white, clear-bottomed 384-well cell culture plates at 2500-5000 cells per well and supplied with dilutions of tested compounds After a desired period of time (typically 3 days), the number of viable cells is quantitated by using Cell Titer-Glo Luminescent Cell Viability Assay (Promega), a cell proliferation assay system based on detection of total amount of ATP present as a measure of cell metabolic activity. The plated cells are mixed with the Cell Titer-Glo developing reagent and counted in a luminescence multiwell plate reader according to the standard manufacturer's protocol to generate IC50 curves for cell proliferation inhibition. Results are typically reported as percent of growth (% viability =(OD72h(compound)−ODday0))/(OD72h(no compound)−ODday0). Alternatively, viable cells are quantitated by using the conventional colorimetric MTT assay. The MTT assay is based on the cleavage of the yellow tetrazolium salt MTT to purple formazan crystal by metabolic active cells. The formazan is then solubilized, and the concentration determined by optical density at 570 nm. The cells plated and incubated with a compound as described above are supplemented with the solution of MTT and incubated for 2-3 hours. The growth medium is removed and dimethyl sulfoxide is added into each well to dissolve the formazan. The absorbance is measured on an ELISA plate reader with a test wavelength of 570 nm and a background subtraction wavelength of 630 nm to obtain sample signal (OD570-OD630). […] The results are reported in terms of IC50 value for a particular compound and a cell line in the standard 3-day proliferation assay using Cell Titer-Glo. […] The results are reported in terms of IC50 value for a particular compound and a cell line in the standard 3-day proliferation assay using MTT assay.

[2] = tested on: CHO (chinese hamster ovary); test: Cell proliferation inhibition, MTT assay, CHO; conditions: Cricetulus griseus, 72 h, CHO cells, 3-day proliferation
Source text: as §1

[3] = tested on: H929; test: Cell proliferation inhibition, MTT assay, H929; conditions: Homo sapiens, NCI-H929, 72 h, H929 multiple myeloma cells, 3-day proliferation
Source text: as §1

[4] = tested on: MM1s; test: Cell proliferation inhibition, MTT assay, MM1s; conditions: Homo sapiens, MM1.S, 72 h, MM1S multiple myeloma cells, 3-day proliferation
Source text: as §1

[5] = tested on: UTMC2; test: Cell proliferation inhibition, MTT assay, UTMC2; conditions: Homo sapiens, 72 h, UTMC2 multiple myeloma cells, 3-day proliferation
Source text: as §1

[6] = tested on: MM1r; test: Cell proliferation inhibition, MTT assay, MM1r; conditions: Homo sapiens, MM.1R, 72 h, MM1R multiple myeloma cells, 3-day proliferation
Source text: as §1

[7] = tested on: CPM2; test: Cell proliferation inhibition, MTT assay, CPM2; conditions: Homo sapiens, Multiple myeloma cell, 72 h, CPM2 multiple myeloma cells, 3-day proliferation
Source text: as §1

[8] = tested on: KMS11; test: Cell proliferation inhibition, MTT assay, KMS11; conditions: Homo sapiens, KMS-11, 72 h, KMS11 multiple myeloma cells, 3-day proliferation
Source text: as §1

Row | Compound | IC50 [1] [µM] | IC50 [2] [µM] | IC50 [3] [µM] | IC50 [4] [µM] | IC50 [5] [µM] | IC50 [6] [µM] | IC50 [7] [µM] | IC50 [8] [µM]
1 | Cc1ccc(OCC(=O)CNc2cc[nH]c(=O)c2-c2nc3cc4c(cc3[nH]2)CN(C2CCN(C)CC2)C4=O)c(C)c1 [drawing 838] | ≥ 20 | ≥ 20 | < 0.5 | < 0.5 | 0.5 to 1 | 0.5 to 1 | 1 to 5 | 1 to 5
2 | Cc1ccc(OCC(=O)CNc2cc[nH]c(=O)c2-c2nc3cc4c(cc3[nH]2)CN(CCCN2CCCC2)C4=O)c(C)c1 [drawing 840] | ≥ 20 | ≥ 20 | 0.5 to 1 | 1 to 5 | 0.5 to 1 | 1 to 5 | 5 to 20 | 5 to 20
3 | CN1CCC(N2Cc3cc4[nH]c(-c5c(NCC(=O)COc6ccccc6Br)cc[nH]c5=O)nc4cc3C2=O)CC1 [drawing 841] | ≥ 20 | ≥ 20 | < 0.5 | < 0.5 | < 0.5 | 0.5 to 1 | 1 to 5 | 1 to 5
4 | CCc1cc2c(cc1OCC(=O)CNc1cc[nH]c(=O)c1-c1nc3cc4c(cc3[nH]1)C(=O)N(C1CCN(C)CC1)C4)OCO2 [drawing 842] | ≥ 20 | ≥ 20 | 0.5 to 1 | < 0.5 | < 0.5 | 1 to 5 | 1 to 5 | 1 to 5
5 | COc1ccc(OCC(=O)CNc2cc[nH]c(=O)c2-c2nc3cc4c(cc3[nH]2)C(=O)N(C2CCN(C)CC2)C4)c(Cl)c1 [drawing 843] | ≥ 20 | ≥ 20 | 0.5 to 1 | 0.5 to 1 | < 0.5 | 1 to 5 | 1 to 5 | 1 to 5
